{
  "source": "paper PMC12749166",
  "about": "“Fragment-based drug design of a bacterial kinase inhibitor capable of increasing the antibiotic sensitivity of clinical isolates” (Communications Chemistry, 2025)",
  "key": {"APH(2”)-IVa [1]": {"tested_on": "APH(2”)-IVa", "set-up": "method as in PMID 19158087", "settings": "read-out: Michaelis constant (Km) for ATP; cited from earlier work"}, "APH(3’)-IIb": {"tested_on": "APH(3’)-IIb", "set-up": "method as in earlier work", "settings": "read-out: Michaelis constant (Km) for ATP; cited from earlier work"}, "APH(3’)-IIa": {"tested_on": "APH(3’)-IIa", "settings": "read-out: Michaelis constant (Km) for ATP; cited from earlier work"}, "APH(9)-Ia": {"molecular_target": "APH(9)-Ia", "set-up": "method as in PMID 21573013, PMID 15388945", "settings": "read-out: Inhibition constant; cited from earlier work"}, "APH(3’)-IIIa [2]": {"molecular_target": "APH(3’)-IIIa", "set-up": "method as in PMID 21573013, PMID 15388945", "settings": "read-out: Inhibition constant; cited from earlier work"}, "APH(3’)-Ia": {"molecular_target": "APH(3’)-Ia", "set-up": "method as in PMID 23758273", "settings": "read-out: Inhibition constant; cited from earlier work"}, "[3]": {"tested_on": "resistant hyper-permeable efflux mutant of E. coli (ΔtolC ΔbamB)", "settings": "cited from earlier work"}, "APH(2”)-IVa [4]": {"molecular_target": "T1, APH(2”)-IVa (Enterococcus casseliflavus, UniProt O68183)", "T1 sequence (O68183 1-301)": "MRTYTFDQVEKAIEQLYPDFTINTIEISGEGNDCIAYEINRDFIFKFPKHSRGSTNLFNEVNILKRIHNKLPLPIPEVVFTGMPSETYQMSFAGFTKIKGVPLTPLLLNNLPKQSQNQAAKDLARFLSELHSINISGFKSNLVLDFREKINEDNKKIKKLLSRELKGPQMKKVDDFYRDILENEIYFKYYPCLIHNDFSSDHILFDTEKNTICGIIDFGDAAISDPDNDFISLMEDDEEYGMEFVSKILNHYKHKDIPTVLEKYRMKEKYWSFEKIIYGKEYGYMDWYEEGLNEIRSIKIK", "assay": "biochemical", "assay_type": "binding", "settings": "read-out: ΔTm (°C)", "experimental": "Thermal shift assays were performed using an RTqPCR machine Mx3005P (Stratagene) in 96-well plates (Thermo-Fast low Profile, ThermoScientific) by mixing the protein at 5 µM, SYPRO® Orange (Sigma Aldrich) at […], and fragments at 500 µM. Fluorescence was followed with Cy3 and SYAL filters. Denaturation curves were collected using MxPro-Mx3005P v4.10 software and analyzed using the implemented version of wTSA-CRAFT[36]."}, "APH(2”)-IVa [5]": {"molecular_target": "T1, APH(2”)-IVa", "assay": "biochemical", "assay_type": "binding", "experimental": "ITC experiments were performed on three different machines: a MicroCal VP-ITC (GE Healthcare), a MicroCal PEAQ-ITC (Malvern), or a MicroCal iTC200 (Malvern). The architecture and principles are similar for the three different systems. The experiments were carried out in Buffer HEPES at 25 °C. Titrations consisted of twenty injections of 1.5 µL inhibitors, every 120 seconds, into the measuring cell using the injection syringe rotating at 750 rpm. The data were analyzed using the MicroCal PEAQ-ITC software (v. 1.52, Malvern) using the single-site binding model to fit the raw data. The standard error of the Kd value was determined from measurements made on distinct samples (n indicated in the text)."}, "APH(2”)-IVa [6]": {"molecular_target": "T1, APH(2”)-IVa", "assay": "biochemical", "settings": "Ki (µM), inhibition constant, ATP-competitive; 0-2 mM MgATP, 100 µM kanamycin A, global fitting"}, "APH(2”)-IVa [7]": {"molecular_target": "T1, APH(2”)-IVa"}, "12 different APHs": {"molecular_target": "12 different APHs", "set-up": "method as in PMID 23758273", "settings": "all the APHs tested; cited from earlier work"}, "APH(3’)-IIIa [8]": {"tested_on": "APH(3’)-IIIa", "set-up": "method as in PMID 11514228", "settings": "cited from earlier work"}, "APH(2”)-Ib": {"tested_on": "APH(2”)-Ib", "set-up": "method as in PMID 11514228", "settings": "at 1 mM; cited from earlier work"}},
  "note": "pKd, pKi: −log10 of the molar value. Read-outs that look alike come from different tables or passages of the source.",
  "data": [
    {"smiles": "Nc1ncnc2c1ncn2[C@@H]1O[C@H](COP(=O)(O)OP(=O)(O)OP(=O)(O)O)[C@@H](O)[C@H]1O", "note": "[ATP, adenosine 5’-triphosphate]", "values": [
      {"measurement": "Km", "setting": "APH(2”)-IVa [1]", "value": 101, "unit": "µM"},
      {"measurement": "Km", "setting": "APH(3’)-IIb", "value": 24, "unit": "µM"},
      {"measurement": "Km", "setting": "APH(3’)-IIa", "value": 45, "unit": "µM"}
    ]},
    {"smiles": "NCCNS(=O)(=O)c1ccc(Cl)c2ccncc12", "note": "[CKI-7]", "values": [
      {"measurement": "pKi", "setting": "APH(9)-Ia", "value": 3.80},
      {"measurement": "pKi", "setting": "APH(3’)-IIIa [2]", "value": 4.18}
    ]},
    {"smiles": "CC(C)(C)n1nc(-c2cccc3ccccc23)c2c(N)ncnc21", "note": "[Compound 1-NA-PP1]", "values": [
      {"measurement": "pKi", "setting": "APH(3’)-Ia", "value": 4.67},
      {"measurement": "Rescue activity of kanamycin A", "setting": "[3]", "value": "demonstrated rescue activity of kanamycin A"}
    ]},
    {"smiles": "CC(C)(C)n1nc(Cc2cccc3ccccc23)c2c(N)ncnc21", "note": "[Compound 1-NM-PP1]", "values": [
      {"measurement": "pKi", "setting": "APH(3’)-Ia", "value": 4.46},
      {"measurement": "Rescue activity of kanamycin A", "setting": "[3]", "value": "demonstrated rescue activity of kanamycin A"}
    ]},
    {"smiles": "O=C(O)c1cc(NC2CC2)ncc1Cl", "note": "[Compound 36]", "values": [
      {"measurement": "ΔTm at 500 µM", "setting": "APH(2”)-IVa [4]", "value": 2.69, "unit": "°C"},
      {"measurement": "pKd", "setting": "APH(2”)-IVa [5]", "value": 4.42},
      {"measurement": "Ki", "setting": "APH(2”)-IVa [6]", "value": 18.2, "unit": "µM"},
      {"measurement": "kss", "setting": "APH(2”)-IVa [7]; [36] = 20 µM, [MgATP] 0.1 mM", "value": 0.130, "unit": "s⁻¹"},
      {"measurement": "kss", "setting": "APH(2”)-IVa [7]; [36] = 20 µM, [MgATP] 0.2 mM", "value": 0.200, "unit": "s⁻¹"},
      {"measurement": "kss", "setting": "APH(2”)-IVa [7]; [36] = 20 µM, [MgATP] 0.3 mM", "value": 0.240, "unit": "s⁻¹"},
      {"measurement": "kss", "setting": "APH(2”)-IVa [7]; [36] = 20 µM, [MgATP] 0.4 mM", "value": 0.278, "unit": "s⁻¹"},
      {"measurement": "kss", "setting": "APH(2”)-IVa [7]; [36] = 50 µM, [MgATP] 0.1 mM", "value": 0.097, "unit": "s⁻¹"},
      {"measurement": "kss", "setting": "APH(2”)-IVa [7]; [36] = 50 µM, [MgATP] 0.2 mM", "value": 0.138, "unit": "s⁻¹"},
      {"measurement": "kss", "setting": "APH(2”)-IVa [7]; [36] = 50 µM, [MgATP] 0.3 mM", "value": 0.175, "unit": "s⁻¹"},
      {"measurement": "kss", "setting": "APH(2”)-IVa [7]; [36] = 50 µM, [MgATP] 0.4 mM", "value": 0.207, "unit": "s⁻¹"},
      {"measurement": "kss", "setting": "APH(2”)-IVa [7]; [36] = 100 µM, [MgATP] 0.1 mM", "value": 0.067, "unit": "s⁻¹"},
      {"measurement": "kss", "setting": "APH(2”)-IVa [7]; [36] = 100 µM, [MgATP] 0.2 mM", "value": 0.101, "unit": "s⁻¹"},
      {"measurement": "kss", "setting": "APH(2”)-IVa [7]; [36] = 100 µM, [MgATP] 0.3 mM", "value": 0.133, "unit": "s⁻¹"},
      {"measurement": "kss", "setting": "APH(2”)-IVa [7]; [36] = 100 µM, [MgATP] 0.4 mM", "value": 0.156, "unit": "s⁻¹"}
    ]},
    {"smiles": "O=c1c(O)c(-c2ccc(O)c(O)c2)oc2cc(O)cc(O)c12", "note": "[Quercetin, quercetin]", "values": [
      {"measurement": "pKi", "setting": "12 different APHs", "value": "4.60 to 7.15"}
    ]},
    {"smiles": "COC[C@H]1OC(=O)c2coc3c2[C@@]1(C)C1=C(C3=O)[C@@H]2CCC(=O)[C@@]2(C)C[C@H]1OC(C)=O", "note": "[Wortmannin, wortmannin]", "values": [
      {"measurement": "Inhibition", "setting": "APH(3’)-IIIa [8]", "value": "did not affect"},
      {"measurement": "Inhibition", "setting": "APH(2”)-Ib", "value": 90, "unit": "%"}
    ]}
  ]
}
